Patent US20180237362A1, “NOVEL POLYGODIAL ANALOGS FOR THE TREATMENT OF CANCER AND OTHER PROLIFERATIVE DISEASES” (THE BOARD OF REGENTS OF THE UNIVERSITY OF TAXAS SYSTEM, priority 2015, published 2018)
Read-outs that look alike come from different tables or passages of the source.

How the values were obtained:
[1] = tested on: panel of cancer cell lines (A549, SKMEL-28, MCF-7, U373, Hs683); assay: MTT antiproliferative assay, panel of five cancer cell lines; assay type: cell-based, human; conditions: for GI50: mean over five cell lines, 72 h treatment, MTT assay, read-out: GI50 in vitro values, Mean + SEM
Description: (§1) Antiproliferative properties of the synthesized compounds were evaluated by the MTT assay. All compounds were dissolved in DMSO at a concentration of either 100 μM or 50 μM prior to cell treatment. The cells were trypsinized and seeded at various cell concentrations depending on the cell type. The cells were grown for 24 h to 72 h, treated with compounds at concentrations ranging from 0.001 to 100 μM and incubated for 48 or 72 h in 100 or 200 μL media depending on the cell line used. The number of experiments and replicates varied depending on the cell line. Cells treated with 0.1% DMSO were used as a negative control; 1 μM PAO was used as a positive control.
(§2) The synthesized C12-Wittig derivatives were evaluated for antiproliferative activities in a panel of cancer cell lines that included apoptosis-resistant human U373 glioblastoma (GBM) (Lefranc et al., 2013), human A549 non-small cell lung cancer (NSCLC) and human SKMEL-28 melanoma (Mathieu et al., 2009) as well as apoptosis-sensitive human Hs683 anaplastic oligodendroglioma (Lefranc et al., 2013) and human MCF-7 breast cancer (Frolova et al., 2013).

HSC3 cells = assay: Calcium imaging, HSC3; assay type: cell-based, human; conditions: for calcium influx, HSC3: polygodial 80 μM, P10 4 μM, P3 50 μM
[2] = tested on: human U373 glioblastoma (GBM); assay: MTT antiproliferative assay, U373; assay type: cell-based; conditions: 72 h treatment, sextuplicates, read-out: GI50 in vitro values, U373
Description: (§3) Human mammary carcinoma MCF-7 (ATCC HTB22) cells were cultured in RPMI supplemented with 10% FBS. The U87 cells (ATCC HTB-14) were cultured in DMEM culture medium, while the A549 cells (DSMZ ACC107) were cultured in RPMI culture medium supplemented with 10% heat-inactivated FBS. The GBM Hs683 (ATCC HTB-138) cells were cultivated in DMEM supplemented with 10% FBS. The human uterine sarcoma MES-SA (ATCC CRL1966) and MES-SA/D×5 cells were cultured in RPMI-1640 medium supplemented with 10% FBS with MES SA/D×5 maintained in the presence of 500 nM Doxorubicin (Sigma). SKMEL-28 cells (ATCC HTB72) and U373 GBM cells (ECACC 08061901) were cultured in RPMI culture medium supplemented with 10% heat-inactivated FBS. Cell culture media were supplemented with 4 mM glutamine (Lonza code BE17-605E), 100 μg/mL gentamicin (Lonza code 17-5182), and penicillin-streptomycin (200 units/ml and 200 μg/ml) (Lonza code 17-602E). The MDA-MB-231 (ATCC HTB-26) epithelial mammary adenocarcinoma cells were cultured in Eagle's minimum essential medium (EMEM; Invitrogen) containing 5% fetal calf serum (FCS, Cambrex), 2 mM L-glutamine (Invitrogen), 0.06% HEPES (Invitrogen) and penicillin (50 IU/ml)/streptomycin (50 µg/ml; Invitrogen) at 37° C. in a humidified atmosphere of 5% CO2 in air. Transformed mouse NPCs were cultured in suspension under neurosphere conditions at 37° C. in a humidified atmosphere of […] and 5% CO2 in DMEM F12 (Invitrogen 11320-074) supplemented with 1×B27 supplement (Invitrogen 17504-044), 5% penicillin-streptomycin (Biochrom 10378-017), 10 ng/ml EGF (R&D systems 236-EG), 10 ng/ml FGF (PeproTech 100-18B).
as §1, §2

OSCC cell line HSC3 = assay: Cell viability (Cell Titer 96 Aqueous), HSC3; assay type: cell-based, human; conditions: for reversal of cytotoxicity by N-acetyl-cysteine: 60 μM compound ± 10 mM NAC; for cancer cell viability, HSC3: 48 hours, potency order P10, polygodial, P3
Description: (§4) Human cancer cell lines were obtained from the American Type Culture Collection (ATCC, Manassas, Va., USA), the European Collection of Cell Culture (ECACC, Salisbury, UK) and the Deutsche Sammlung von Mikroorganismen und Zellkulturen (DSMZ, Braunschweig, Germany). The OSCC cell lines, Cal27 and HSC3 are derived from human primary tongue tumor. Cal27 cells were obtained from the American Type Culture Collection (Rockville, Md.). HSC3 cells were provided by Dr. Brian Schmidt. HeLa cells (cervical cancer cell line) were obtained from ATCC. Cells were cultured in DMEM, containing 10% FBS and 1% penicillin-streptomycin media, at 37° C. in 5% CO2. All cells were authenticated by Genetic DNA Laboratories.
(§5) The cytotoxicity of polygodial, P10, P3, and P27 in Cal27, HSC3, and HeLa cells was examined in vitro using a colorimetric assay, Cell Titer 96® Aqueous Non-Radioactive Cell Proliferation Assay. […] GraphPad Prism4 was used to perform statistical analysis.

[3] = tested on: cervical cancer cell line HeLa; assay: Cell viability (Cell Titer 96 Aqueous), HeLa; assay type: cell-based, human; conditions: 48 hours; potency order P10, polygodial, P3
Description: as §4, §5

HeLa-derived tumors = assay: Mouse xenograft model, HeLa; assay type: in vivo, athymic nude mice; conditions: for anti-tumor effect, HeLa-derived tumors: 40 μg/100 μl intra-tumor injection every other day for 18 days, polygodial significantly more efficacious than P3; for adverse effects, HeLa xenograft mice: intra-tumor injection every other day for 18 days
Description: Six-week old female athymic nude mice were used in laminar air-flow cabinet in pathogen-free conditions. They were acclimated for one week prior to the start of the study and kept at controlled temperature and humidity, with food and water. Mice were injected subcutaneously in the flank with 2×10^6 Cal27 cells or HeLa cells in 0.1 mL of sterile PBS. When the tumors reached 100 mm^3 (Cal27) and 150 mm^3 (HeLa), the mice were stratified into 4 groups, […], polygodial, P10, P3 and P27 at the concentrations noted in the figure legends.

[4] = tested on: human MCF-7 breast cancer; assay: MTT antiproliferative assay, MCF-7; assay type: cell-based; conditions: sextuplicates, read-out: GI50 in vitro values, MCF-7
Description: as §3, §1, §2

[5] = tested on: human Hs683 anaplastic oligodendroglioma; assay: MTT antiproliferative assay, Hs683; assay type: cell-based; conditions: sextuplicates, read-out: GI50 in vitro values, Hs683
Description: as §3, §1, §2

human SKMEL-28 melanoma = assay: MTT antiproliferative assay, SKMEL-28; assay type: cell-based; conditions: sextuplicates, read-out: GI50 in vitro values, SKMEL-28
Description: as §3, §1, §2

[6] = tested on: human A549 non-small cell lung cancer (NSCLC); assay: MTT antiproliferative assay, A549; assay type: cell-based; conditions: for GI50: 72 h treatment, MTT assay, sextuplicates, read-out: GI50 in vitro values, A549
Description: as §3, §1, §2

CC1(C)CCC[C@]2(C)[C@@H](C=O)C(C=O)=CC[C@@H]12 [Compound 1, Polygodial]
antiproliferative activity in the cancer cell panel ([1]; 72-hour treatment): ineffective | GI50 ([1]; Homo sapiens): > 85 µM | reversal of calcium influx by capsazepine, HSC3 (HSC3 cells; CPZ 10 μM): inhibited by CPZ | calcium influx, HSC3 (HSC3 cells): did induce calcium influx | GI50 ([2]; Homo sapiens, U373 MG): > 99 µM | reversal of cytotoxicity by N-acetyl-cysteine (OSCC cell line HSC3): Cytotoxicity was reversible | cancer cell viability, HSC3 (OSCC cell line HSC3): reduced cancer cell viability in vitro | cancer cell viability, HeLa [3]: reduced cancer cell viability in vitro | anti-tumor effect, HeLa-derived tumors (HeLa-derived tumors): significant anti-tumor effects | adverse effects, HeLa xenograft mice (HeLa-derived tumors): marked inflammatory response | GI50 ([4]; Homo sapiens, MCF7, 72 h treatment): 75 µM | GI50 ([5]; Homo sapiens, Hs 683, 72 h treatment): 95 µM | GI50 (human SKMEL-28 melanoma; Homo sapiens, SK-MEL-28, 72 h treatment): 65 µM | GI50 ([6]; Homo sapiens, A549): 90 µM

COC(=O)/C=C/C1=CC[C@H]2C(C)(C)CCC[C@]2(C)[C@H]1C=O [Compound 5]
resistant populations in growth curves ([1]; all 5 cultures, concentrations just slightly exceeding GI50, close to 0% cell viability): absence of resistant populations | GI50 [1]: 20 ± 3 µM | calcium influx, HSC3 (HSC3 cells): did not induce calcium influx | GI50 [2]: 22 µM | reversal of cytotoxicity by N-acetyl-cysteine (OSCC cell line HSC3): Cytotoxicity was reversible | cancer cell viability, HSC3 (OSCC cell line HSC3): reduced cancer cell viability in vitro | cancer cell viability, HeLa [3]: reduced cancer cell viability in vitro | anti-tumor effect, HeLa-derived tumors (HeLa-derived tumors): significant anti-tumor effects | adverse effects, HeLa xenograft mice (HeLa-derived tumors): No observable adverse effects | GI50 ([4]; 72 h treatment): 7 µM | GI50 ([5]; 72 h treatment): 24 µM | GI50 (human SKMEL-28 melanoma; 72 h treatment): 27 µM | GI50 [6]: 21 µM | effect on proliferation/viability of all cells, A549 ([6]; apoptosis-resistant A549 NSCLC, concentrations up to 100 μM): growth inhibitory properties against most of the cells
